pIC50: −log10 of the molar value.
Key:
[1] = target: T1, BTK (Homo sapiens (Human), UniProt Q06187); assay: BTK enzymatic activity assay (Caliper-based kinase assay); assay type: biochemical; conditions: human recombinant BTK 0.5 nM, ATP 16 μM, 3 h room temperature
Protocol: A Caliper-based kinase assay (Caliper Life Sciences, Hopkinton, Mass.) was used to measure inhibition of BTK kinase activity of a compound of the present disclosure. […] The reaction was then terminated with EDTA, final concentration 20 mM and the phosphorylated reaction product was quantified on a Caliper Desktop Profiler (Caliper LabChip 3000). […] This value is presented as the IC50.

[2] = target: T1, BTK; assay: Determination of drug-kinase residence time (TR-FRET tracer competition, occupancy after washout); assay type: binding; conditions: 1.5 μM compound, 500 nM BTK; for % occupany at 1 h: 1 h of washout; for % occupany at 6 h: 6 h of washout; for % occupany at 24 h: 24 h of washout
Protocol: The experiment was conducted in a buffer consisting of 50 mM Hepes pH 7.5, 10 mM MgCl2, 0.01% Triton X-100, and 1 mM EGTA.
The mixture was then diluted 5-fold by addition of 40 μL of buffer. […] In order to probe for reversibility of the kinase-compound binding interaction, a competition solution containing both a high affinity fluorescent tracer and an antibody coupled to Europium was prepared. […] The competition solution also contained 80 nM of an Anti-polyhistidine antibody coupled to Europium (Invitrogen Cat. #PV5596) which is designed to bind the polyhistidine purification tag in BTK.
It is to be expected that covalent and slow dissociating inhibitors will block binding of the tracer while rapidly dissociating non-covalent inhibitors will not. […] Data were plotted at percentage of signal obtained in the absence of competitor compound. The background signal was obtained by omission of BTK from the reaction. […] If the compound is a reversible covalent inhibitor, the tracer will bind the target as the compound dissociates from the target.

T1 sequence (Q06187 whole entry): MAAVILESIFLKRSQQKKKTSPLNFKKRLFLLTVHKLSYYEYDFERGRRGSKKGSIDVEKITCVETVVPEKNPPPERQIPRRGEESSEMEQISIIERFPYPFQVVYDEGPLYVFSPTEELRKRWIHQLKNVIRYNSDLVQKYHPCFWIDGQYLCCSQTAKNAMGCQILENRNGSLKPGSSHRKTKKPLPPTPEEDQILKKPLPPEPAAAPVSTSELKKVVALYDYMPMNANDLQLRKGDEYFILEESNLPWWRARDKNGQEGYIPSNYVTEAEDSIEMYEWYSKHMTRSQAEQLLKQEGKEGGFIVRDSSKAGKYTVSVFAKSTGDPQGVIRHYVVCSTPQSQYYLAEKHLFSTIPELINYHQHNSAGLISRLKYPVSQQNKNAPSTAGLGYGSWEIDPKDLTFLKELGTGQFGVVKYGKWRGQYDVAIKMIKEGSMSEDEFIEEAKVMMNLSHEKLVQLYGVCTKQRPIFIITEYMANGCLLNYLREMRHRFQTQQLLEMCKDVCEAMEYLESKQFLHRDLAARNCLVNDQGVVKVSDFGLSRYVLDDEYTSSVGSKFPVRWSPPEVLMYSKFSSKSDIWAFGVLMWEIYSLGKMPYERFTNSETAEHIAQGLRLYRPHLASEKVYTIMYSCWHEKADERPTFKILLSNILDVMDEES

In the case of `COCCN1CCN(C(C)(C)C=C(C#N)C(=O)N2CCC[C@@H](n3c(=O)n(-c4ccc(Oc5ccccc5)cc4)c4c(N)nccc43)C2)CC1` [Compound 9, (R)-2-(3-(4-amino-2-oxo-3-(4-phenoxyphenyl)-2,3-dihydro-1H-imidazo[4,5-c]pyridin-1-yl)piperidine-1-carbonyl)-4-(4-(2-methoxyethyl)piperazin-1-yl)-4-methylpent-2-enenitrile], the pIC50 [1] was 8.11, the “% occupany at 1 h” value [2] was 93.363% and the “% occupany at 6 h” value [2] was 70.733%. For the same molecule, the “% occupany at 24 h” value [2] was 31.4%.

For `N#CC(=CC1CCOCC1)C(=O)N1CCC[C@@H](n2c(=O)n(-c3ccc(Oc4ccccc4)cc3)c3c(N)nccc32)C1` [Compound 2, (R)-2-(3-(4-amino-2-oxo-3-(4-phenoxyphenyl)-2,3-dihydro-1H-imidazo[4,5-c]pyridin-1-yl)piperidine-1-carbonyl)-3-(tetrahydro-2H-pyran-4-yl)acrylonitrile], the pIC50 [1] was 8.04, the “% occupany at 1 h” value [2] was 93.602% and the “% occupany at 6 h” value [2] was 85.49%. For the same molecule, the “% occupany at 24 h” value [2] was 65.826%.

For `CC(C)(C=C(C#N)C(=O)N1CCC[C@@H](n2c(=O)n(-c3ccc(Oc4ccccc4)cc3)c3c(N)nccc32)C1)N1CCOCC1` [Compound 4, (R)-2-(3-(4-amino-2-oxo-3-(4-phenoxyphenyl)-2,3-dihydro-1H-imidazo[4,5-c]pyridin-1-yl)piperidine-1-carbonyl)-4-methyl-4-morpholinopent-2-enenitrile], the pIC50 [1] was 8.11, the “% occupany at 1 h” value [2] was 90.005% and the “% occupany at 6 h” value [2] was 66.344%. The “% occupany at 24 h” value [2] was 18.2%.

`CC(C)(C=C(C#N)C(=O)N1CCC[C@@H](n2c(=O)n(-c3ccc(Oc4ccccc4)cc3)c3c(N)nccc32)C1)N1CCN(CC(F)(F)F)CC1` [Compound 6, (R)-2-(3-(4-amino-2-oxo-3-(4-phenoxyphenyl)-2,3-dihydro-1H-imidazo[4,5-c]pyridin-1-yl)piperidine-1-carbonyl)-4-methyl-4-(4-(2,2,2-trifluoroethyl)piperazin-1-yl)pent-2-enenitrile] was tested, and the pIC50 [1] was 8.23, the “% occupany at 1 h” value [2] was 94.404% and the “% occupany at 6 h” value [2] was 86.64%. For the same molecule, the “% occupany at 24 h” value [2] was 67.505%.

For `CC(C)(C)C=C(C#N)C(=O)N1CCC[C@H]1Cn1c(=O)n(-c2ccc(Oc3ccccc3)cc2)c2c(N)nccc21` [Compound 12, (S)-2-(2-((4-amino-2-oxo-3-(4-phenoxyphenyl)-2,3-dihydro-1H-imidazo[4,5-c]pyridin-1-yl)methyl)pyrrolidine-1-carbonyl)-4,4-dimethylpent-2-enenitrile], the pIC50 [1] was 8.18, the “% occupany at 1 h” value [2] was 95.906% and the “% occupany at 6 h” value [2] was 96.44%. The “% occupany at 24 h” value [2] was 90.847%.

For `N#CC(=CC1CCC1)C(=O)N1CCC[C@@H](n2c(=O)n(-c3ccc(Oc4ccccc4)cc3)c3c(N)nccc32)C1` [Compound 8, (R)-2-(3-(4-amino-2-oxo-3-(4-phenoxyphenyl)-2,3-dihydro-1H-imidazo[4,5-c]pyridin-1-yl)piperidine-1-carbonyl)-3-cyclobutylacrylonitrile], the pIC50 [1] was 7.62, the “% occupany at 1 h” value [2] was 93.335% and the “% occupany at 6 h” value [2] was 89.195%. For the same molecule, the “% occupany at 24 h” value [2] was 80.873%.

For `CC(C)(C)C=C(C#N)C(=O)N1CCC[C@@H](n2c(=O)n(-c3ccc(Oc4ccccc4)cc3)c3c(N)nccc32)C1` [Compound 1, (R)-2-(3-(4-amino-2-oxo-3-(4-phenoxyphenyl)-2,3-dihydro-1H-imidazo[4,5-c]pyridin-1-yl)piperidine-1-carbonyl)-4,4-dimethylpent-2-enenitrile], the pIC50 [1] was 8.09, the “% occupany at 1 h” value [2] was 97.036% and the “% occupany at 6 h” value [2] was 82.199%. The “% occupany at 24 h” value [2] was 70.975%.

With `CC1(C=C(C#N)C(=O)N2CCC[C@@H](n3c(=O)n(-c4ccc(Oc5ccccc5)cc4)c4c(N)nccc43)C2)CCC1` [Compound 3, (R)-2-(3-(4-amino-2-oxo-3-(4-phenoxyphenyl)-2,3-dihydro-1H-imidazo[4,5-c]pyridin-1-yl)piperidine-1-carbonyl)-3-(1-methylcyclobutyl)acrylonitrile] the pIC50 [1] was 7.67, the “% occupany at 1 h” value [2] was 65.626% and the “% occupany at 6 h” value [2] was 58.519%. The “% occupany at 24 h” value [2] was 46.073%.

With `CC#CC(=O)N1CCC[C@@H](n2c(=O)n(-c3ccc(Oc4ccccc4)cc3)c3c(N)nccc32)C1` [Compound 17, (R)-4-amino-1-(1-(but-2-ynoyl)piperidin-3-yl)-3-(4-phenoxyphenyl)-1H-imidazo[4,5-c]pyridin-2(3H)-one] the pIC50 [1] was 7.88, the “% occupany at 1 h” value [2] was 81.247% and the “% occupany at 6 h” value [2] was 78.623%. For the same molecule, the “% occupany at 24 h” value [2] was 74.744%.

In the case of `COC(=O)N1CCN(C(C)(C)C=C(C#N)C(=O)N2CCC[C@@H](n3c(=O)n(-c4ccc(Oc5ccccc5)cc4)c4c(N)nccc43)C2)CC1` [Compound 10, (R)-methyl 4-(5-(3-(4-amino-2-oxo-3-(4-phenoxyphenyl)-2,3-dihydro-1H-imidazo[4,5-c]pyridin-1-yl)piperidin-1-yl)-4-cyano-2-methyl-5-oxopent-3-en-2-yl)piperazine-1-carboxylate], the pIC50 [1] was 8.15, the “% occupany at 1 h” value [2] was 94.392% and the “% occupany at 6 h” value [2] was 77.985%. The “% occupany at 24 h” value [2] was 49.145%.

For `CN1CCN(C(C)(C)C=C(C#N)C(=O)N2CCC[C@@H](n3c(=O)n(-c4ccc(Oc5ccccc5)cc4)c4c(N)nccc43)C2)CC1=O` [Compound 18, (R)-2-(3-(4-amino-2-oxo-3-(4-phenoxyphenyl)-2,3-dihydro-1H-imidazo[4,5-c]pyridin-1-yl)piperidine-1-carbonyl)-4-methyl-4-(4-methyl-3-oxopiperazin-1-yl)pent-2-enenitrile], the pIC50 [1] was 8.43, the “% occupany at 1 h” value [2] was 93.065% and the “% occupany at 6 h” value [2] was 73.513%. For the same molecule, the “% occupany at 24 h” value [2] was 31.704%.

In the case of `CN1CCC(C(C)(C)C=C(C#N)C(=O)N2CCC[C@@H](n3c(=O)n(-c4ccc(Oc5ccccc5)cc4)c4c(N)nccc43)C2)CC1` [Compound 7, (R)-2-(3-(4-amino-2-oxo-3-(4-phenoxyphenyl)-2,3-dihydro-1H-imidazo[4,5-c]pyridin-1-yl)piperidine-1-carbonyl)-4-methyl-4-(1-methylpiperidin-4-yl)pent-2-enenitrile], the pIC50 [1] was 8.74, the “% occupany at 1 h” value [2] was 61.932% and the “% occupany at 6 h” value [2] was −1.3946%. The “% occupany at 24 h” value [2] was −12.344%.

In the case of `COC(=O)N1CCN(C(C)(C)C=C(C#N)C(=O)N2CCC[C@H]2Cn2c(=O)n(-c3ccc(Oc4ccccc4)cc3)c3c(N)nccc32)CC1` [Compound 15, (S)-methyl 4-(5-(2-((4-amino-2-oxo-3-(4-phenoxyphenyl)-2,3-dihydro-1H-imidazo[4,5-c]pyridin-1-yl)methyl)pyrrolidin-1-yl)-4-cyano-2-methyl-5-oxopent-3-en-2-yl)piperazine-1-carboxylate], the pIC50 [1] was 7.14, the “% occupany at 1 h” value [2] was 91.927% and the “% occupany at 6 h” value [2] was 85.356%. For the same molecule, the “% occupany at 24 h” value [2] was 50.188%.

For `CC(C)(C=C(C#N)C(=O)N1CCC[C@H]1Cn1c(=O)n(-c2ccc(Oc3ccccc3)cc2)c2c(N)nccc21)N1CCN(C2COC2)CC1` [Compound 13, (S)-2-(2-((4-amino-2-oxo-3-(4-phenoxyphenyl)-2,3-dihydro-1H-imidazo[4,5-c]pyridin-1-yl)methyl)pyrrolidine-1-carbonyl)-4-methyl-4-(4-(oxetan-3-yl)piperazin-1-yl)pent-2-enenitrile], the pIC50 [1] was 7.68, the “% occupany at 1 h” value [2] was 91.54% and the “% occupany at 6 h” value [2] was 83.963%. For the same molecule, the “% occupany at 24 h” value [2] was 49.152%.

In the case of `CC(C)(C=C(C#N)C(=O)N1CCC[C@@H](n2c(=O)n(-c3ccc(Oc4ccccc4)cc3)c3c(N)nccc32)C1)N1CCN(C2COC2)CC1` [Compound 5, (R)-2-(3-(4-amino-2-oxo-3-(4-phenoxyphenyl)-2,3-dihydro-1H-imidazo[4,5-c]pyridin-1-yl)piperidine-1-carbonyl)-4-methyl-4-(4-(oxetan-3-yl)piperazin-1-yl)pent-2-enenitrile], the pIC50 [1] was 8.60, the “% occupany at 1 h” value [2] was 93.773% and the “% occupany at 6 h” value [2] was 83.103%. The “% occupany at 24 h” value [2] was 57.488%.

In the case of `CC(C)(C=C(C#N)C(=O)N1CCC[C@H]1Cn1c(=O)n(-c2ccc(Oc3ccccc3)cc2)c2c(N)nccc21)N1CCOCC1` [Compound 14, (S)-2-(2-((4-amino-2-oxo-3-(4-phenoxyphenyl)-2,3-dihydro-1H-imidazo[4,5-c]pyridin-1-yl)methyl)pyrrolidine-1-carbonyl)-4-methyl-4-morpholinopent-2-enenitrile], the pIC50 [1] was 7.76, the “% occupany at 1 h” value [2] was 91.481% and the “% occupany at 6 h” value [2] was 76.396%. For the same molecule, the “% occupany at 24 h” value [2] was 22.922%.
